IC50 data for 2 molecules are collected here from ChEMBL document CHEMBL1155560, “Two complex proline esters from the sea hare Stylocheilus longicauda” (J Nat Prod, 2000).

Converted amounts (≈) assume the structure as drawn.

What all share (format): functional, cell-based
In assay [1] the test system is A549. Description: Cytotoxicity against human A549 cells.
Assay [2] in a line: Cytotoxicity against human HTB38 cells. To be noted: HTB-38.
Assay [3] deals with P388. As to the kind of experiment: Cytotoxicity against mouse P388 cells.

What is called IC50 is the concentration that inhibits the measured activity by half. Higher therefore signals weaker potency. As to `C=C[C@](C)(CCC=C(C)C)c1ccc2c3c(c[nH]c13)C[C@@H](COC(C)=O)NC(=O)[C@H](C(C)C)N2C` [LYNGBYATOXIN A ACETATE], the IC50 in assay [1], in assay [2] and in assay [3] was 0.05 µg/mL each time.
As for `C=C(C/C=C/C=C/Cl)CC(OC(=O)[C@@H]1CCC(=O)N1C)C(C)(C)C` (stereo partly specified), the IC50 in assay [1], in assay [2] and in assay [3] was 2.5 µg/mL (≈ 7.06 µM) each time.
